Test results from ChEMBL document CHEMBL2203219, “Discovery and evolution of phenoxypiperidine hydroxyamide dual CCR3/H₁ antagonists. Part II: optimising in vivo clearance” (Bioorg Med Chem Lett, 2012).

What was measured:
in vitro [1] = details: human
in vitro [2] = details: rat, hepatocytes
physchem = details: octanol/water
Rattus norvegicus = organism: Rattus norvegicus; details: in vivo, iv
[3] = Oral bioavailability in rat; type: ADME, organism-based; details: in vivo
[4] = Oral bioavailability in dog; type: ADME, organism-based, Canis lupus familiaris; details: in vivo
in vivo [5] = details: rat, iv
in vivo [6] = details: rat, iv; remark: listed apart in the source
in vivo [7] = details: dog
in vivo [8] = details: dog; remark: listed apart in the source
in vivo [9] = details: rat, iv; remark: listed apart in the source

microsomal CLint (in vitro [1]; liver microsomes)	hepatocyte CLint (in vitro [2])	logD (physchem)	Structure (SMILES)	also measured
6 µL/min/mg	3 µL/min/1e6 cells		Cc1c(Cl)ccc(OC2CCN(C[C@H](O)CNC(=O)c3c[nH]c(=O)cc3C(F)(F)F)CC2)c1Cl	
14 µL/min/mg	7 µL/min/1e6 cells	2.4	Cc1cc(Cl)ccc1OC1CCN(C[C@H](O)CNC(=O)c2c[nH]c(=O)c3cc(S(C)(=O)=O)ccc23)CC1	
18 µL/min/mg	2 µL/min/1e6 cells	1.5	NC(=O)c1c(OC2CCN(C[C@H](O)CNC(=O)c3c[nH]c(=O)c4ccccc34)CC2)ccc(Cl)c1Cl	CL (Rattus norvegicus): 0.0086 mL/min/kg; bioavailability [3]: < 5%
< 3 µL/min/mg	4 µL/min/1e6 cells		O=C(NC[C@@H](O)CN1CCC(Oc2ccc(Cl)c(Cl)c2)CC1)c1c[nH]c(=O)cc1C(F)(F)F	bioavailability [3]: < 10%; bioavailability [4]: 63%
21 µL/min/mg	6 µL/min/1e6 cells		O=C(NC[C@@H](O)CN1CCC(Oc2ccc(Cl)c(Cl)c2)CC1)c1c[nH]c(=O)c2cc(S(=O)(=O)NC3CC3)ccc12	
		1.4	CS(=O)(=O)c1ccc2c(C(=O)NC[C@@H](O)CN3CCC(Oc4ccc(C#N)c(Cl)c4)CC3)c[nH]c(=O)c2c1	
8 µL/min/mg	5 µL/min/1e6 cells	3.9	O=C(NC[C@@H](O)CN1CCC(Oc2ccc(Cl)c(Cl)c2)CC1)c1c[nH]c(=O)c2ccc(F)cc12	
9 µL/min/mg	< 3 µL/min/1e6 cells		Cc1cc(Cl)ccc1OC1CCN(C[C@H](O)CNC(=O)c2c[nH]c(=O)c3cc(F)ccc23)CC1	
< 3 µL/min/mg	3 µL/min/1e6 cells		O=C(NC[C@@H](O)CN1CCC(Oc2ccc(Cl)c(Cl)c2)CC1)c1c[nH]nc1C(F)(F)F	clearance (in vivo [5]): 22 mL/min/kg; half-life (in vivo [6]): 6 h; bioavailability [3]: 36%
			O=C(NC[C@@H](O)CN1CCC(Oc2ccc(Cl)c(Cl)c2)CC1)c1c[nH]c(=O)c2ccccc12	bioavailability [3]: 11%; bioavailability [4]: 40%
	7 µL/min/1e6 cells		O=C(NC[C@@H](O)CN1CCC(Oc2ccc(Cl)c(Cl)c2)CC1)c1c[nH]c(=O)c2cc(S(=O)(=O)N3CCC3)ccc12	microsomal CLint (in vitro [1]; microsomes): < 3 µL/min/mg
	3 µL/min/1e6 cells		CS(=O)(=O)c1ccc2c(C(=O)NC[C@@H](O)CN3CCC(Oc4ccc(Cl)c(Cl)c4)CC3)c[nH]c(=O)c2c1	
9 µL/min/mg	< 3 µL/min/1e6 cells		O=C(NC[C@@H](O)CN1CCC(Oc2ccc(Cl)c(Cl)c2)CC1)c1c[nH]nc1C1CC1	
6 µL/min/mg	< 3 µL/min/1e6 cells	3.2	O=C(NC[C@@H](O)CN1CCC(Oc2ccc(Cl)c(Cl)c2)CC1)c1c[nH]c(=O)c2c(F)cccc12	
7 µL/min/mg	8 µL/min/1e6 cells		Cc1cc(Cl)ccc1OC1CCN(C[C@H](O)CNC(=O)c2c[nH]c(=O)c3ccc(S(C)(=O)=O)cc23)CC1	
3 µL/min/mg	< 3 µL/min/1e6 cells		Cc1cc(Cl)ccc1OC1CCN(C[C@H](O)CNC(=O)c2c[nH]c(=O)cc2C(F)(F)F)CC1	
	5 µL/min/1e6 cells		Cc1cc(Cl)ccc1OC1CCN(C[C@H](O)CNC(=O)c2c[nH]nc2C(F)(F)F)CC1	microsomal CLint (in vitro [1]; microsomes): < 3 µL/min/mg
	5 µL/min/1e6 cells		O=C(NC[C@@H](O)CN1CCC(Oc2ccc(Cl)c(Cl)c2)CC1)c1c[nH]c(=O)c2cc(S(=O)(=O)NCCO)ccc12	
< 3 µL/min/mg	6 µL/min/1e6 cells		Cc1c(Cl)ccc(OC2CCN(C[C@H](O)CNC(=O)c3c[nH]nc3C(F)(F)F)CC2)c1Cl	
13 µL/min/mg	12 µL/min/1e6 cells	2.8	Cc1c(Cl)ccc(OC2CCN(C[C@H](O)CNC(=O)c3c[nH]c(=O)c4cc(S(C)(=O)=O)ccc34)CC2)c1Cl	
18 µL/min/mg	3 µL/min/1e6 cells	2.5	CC1(O)CN(S(=O)(=O)c2ccc3c(C(=O)NC[C@@H](O)CN4CCC(Oc5ccc(Cl)c(Cl)c5)CC4)c[nH]c(=O)c3c2)C1	
86 µL/min/mg	10 µL/min/1e6 cells	3.1	CN(C)S(=O)(=O)c1ccc2c(C(=O)NC[C@@H](O)CN3CCC(Oc4ccc(Cl)c(Cl)c4)CC3)c[nH]c(=O)c2c1	
	< 3 µL/min/1e6 cells		Cn1cc(C(=O)NC[C@@H](O)CN2CCC(Oc3ccc(Cl)c(Cl)c3)CC2)c(C(F)(F)F)cc1=O	microsomal CLint (in vitro [1]; microsomes): 5 µL/min/mg; half-life (in vivo [7]): 10.8 h; clearance (in vivo [5]): 9 mL/min/kg; half-life (in vivo [6]): 9.7 h; bioavailability [3]: 53%; clearance (in vivo [8]): 8 mL/min/kg; bioavailability [4]: 81%
		3.2	O=C(NC[C@@H](O)CN1CCC(Oc2ccc(Cl)c(Cl)c2)CC1)c1c[nH]c(=O)c2cc(F)ccc12	Vd (in vivo [9]): 6.4 L/kg
< 3 µL/min/mg	< 3 µL/min/1e6 cells		NS(=O)(=O)c1ccc2c(C(=O)NC[C@@H](O)CN3CCC(Oc4ccc(Cl)c(Cl)c4)CC3)c[nH]c(=O)c2c1	
18 µL/min/mg	6 µL/min/1e6 cells		N#Cc1ccc(OC2CCN(C[C@H](O)CNC(=O)c3c[nH]c(=O)c4ccccc34)CC2)cc1	
9 µL/min/mg	7 µL/min/1e6 cells	3	Cc1cc(Cl)ccc1OC1CCN(C[C@H](O)CNC(=O)c2c[nH]c(=O)c3c(F)cccc23)CC1	
14 µL/min/mg	< 3 µL/min/1e6 cells	2.8	CNS(=O)(=O)c1ccc2c(C(=O)NC[C@@H](O)CN3CCC(Oc4ccc(Cl)c(Cl)c4)CC3)c[nH]c(=O)c2c1	
< 3 µL/min/mg	< 3 µL/min/1e6 cells	2.8	Cc1c(Cl)ccc(OC2CCN(C[C@H](O)CNC(=O)c3c[nH]c(=O)c4ccc(S(C)(=O)=O)cc34)CC2)c1Cl	
22 µL/min/mg	10 µL/min/1e6 cells	2.6	N#Cc1ccc(OC2CCN(C[C@H](O)CNC(=O)c3c[nH]c(=O)c4ccccc34)CC2)cc1Cl	
